Laboratory results taken from patent US20220031596A1, “ANTI-AGING AGENT AND ANTI-AGING METHOD” (priority 2018, published 2022).

Tests used:
Assay type in all cases: in vivo, human
[1] = system: ghrelin concentration in the plasma; assay: Evaluation of ghrelin secretion promoting effect (plasma ghrelin, 24-week oral ingestion); details: for ghrelin concentration in the plasma, 0 weeks (before ingestion) / ghrelin concentration in the plasma, 24 weeks (after ingestion) / ghrelin concentration in the plasma, Change rate (24 weeks - 0 weeks): High Dose Group (200 mg/daily, oral), mean±SD; for ghrelin concentration in the plasma, 0 weeks (before ingestion): baseline
Description: In order to confirm a change in the ghrelin quantity before and after ingestion of the nicotinamide mononucleotide, a test was conducted on healthy males and females aged 50 to 70 years.
As a sample of Working Example 3, a capsule formulation containing the nicotinamide mononucleotide and starch (200 mg of the nicotinamide mononucleotide in 4 capsules) (manufactured by SHINKOWA PHARMACEUTICAL Co., Ltd.) was used.
(§1) Each group consisting of five healthy males and females aged 50 to 70 years in an unbiased age group ingested the above capsule formulation once a day by 4 capsules for 24 weeks (total 10 subjects, 200 mg/daily ingestion). In order to conduct appropriate evaluations, those who had been regularly using medical products for chronic diseases, those who had been consuming healthy foods that may affect clinical research, and those who were currently participating in other clinical researches or clinical trials or had participated in other clinical researches or clinical trials within the last three months were excluded from the subject for the evaluation. The capsule formulations were ingested at 10 am (between meals and fasting state) together with water or lukewarm water (oral administration).
Measurement of the ghrelin quantity in the plasma was conducted by requesting the measurement to an external public organization according to a usual method. FIGS. 6a to 6c indicate transitions of the ghrelin concentration (pg/ml) in the plasma for 24 weeks. FIG. 6a represents the transitions of the whole subjects; FIG. 6b represents the transitions of the male subjects; FIG. 6c represents the transitions of the female subjects. Further, FIGS. 7a to 7c indicate change rates (%) of the blood ghrelin concentration up to 24 weeks when the nicotinamide mononucleotide was orally administered to the subjects for 24 weeks. FIG. 7a represents the change rates of the whole subjects; FIG. 7b represents the change rates of the male subjects; FIG. 7c represents the change rates of the female subjects. Further, Table 3 indicates the numerical values of the ghrelin concentration (pg/ml) in the plasma before the ingestion of the nicotinamide mononucleotide (0 weeks) and after the ingestion of the nicotinamide mononucleotide (24 weeks). Note that the numerical values represent mean values±standard deviation.

[2] = system: estradiol concentration in the plasma; assay: Evaluation of estradiol secretion promoting effect (plasma estradiol, 24-week oral ingestion); details: for estradiol concentration in the plasma, 0 weeks (before ingestion) / estradiol concentration in the plasma, 24 weeks (after ingestion) / estradiol concentration in the plasma, Change rate (24 weeks - 0 weeks): Low Dose Group (100 mg/daily, oral), mean±SD; for estradiol concentration in the plasma, 0 weeks (before ingestion): baseline
Description: In order to confirm a change in the estradiol quantity before and after ingestion of the nicotinamide mononucleotide, a test was conducted on healthy males and females aged 50 to 70 years.
As a sample of Working Example 7, a capsule formulation containing the nicotinamide mononucleotide and starch (100 mg of the nicotinamide mononucleotide in 4 capsules) (manufactured by SHINKOWA PHARMACEUTICAL Co., Ltd.) was used.
as §1, with “Each group consisting of five healthy males and females aged 50 to 70 years in an unbiased age group ingested the above capsule formulation once a day by 4 capsules for 24 weeks (total 10 subjects, 200 mg/daily ingestion).” left out
Measurement of the estradiol quantity in the plasma was conducted by requesting the measurement to an external public organization according to a usual method. FIGS. 14a to 14c indicate transitions of the estradiol concentration (pg/ml) in the plasma for 24 weeks. FIG. 14a represents the transitions of the whole subjects; FIG. 14b represents the transitions of the male subjects; FIG. 14c represents the transitions of the female subjects. Further, FIGS. 15a to 15c indicate change rates (%) of the blood estradiol concentration up to 24 weeks when the nicotinamide mononucleotide was orally administered to the subjects for 24 weeks. FIG. 15a represents the change rates of the whole subjects; FIG. 15b represents the change rates of the male subjects; FIG. 15c represents the change rates of the female subjects. Further, Table 7 indicates the numerical values of the estradiol concentration (pg/ml) in the plasma before the ingestion of the nicotinamide mononucleotide (0 weeks) and after the ingestion of the nicotinamide mononucleotide (24 weeks). Note that the numerical values represent mean values±standard deviation.

[3] = system: prolactin concentration in the plasma; assay: Evaluation of prolactin secretion promoting effect (plasma prolactin, 24-week oral ingestion); details: for prolactin concentration in the plasma, 0 weeks (before ingestion) / prolactin concentration in the plasma, 24 weeks (after ingestion) / prolactin concentration in the plasma, Change rate (24 weeks - 0 weeks): Low Dose Group (100 mg/daily, oral), mean±SD; for prolactin concentration in the plasma, 0 weeks (before ingestion): baseline
Description: In order to confirm a change in the prolactin quantity before and after ingestion of the nicotinamide mononucleotide, a test was conducted on healthy males and females aged 50 to 70 years.
As a sample of Working Example 9, a capsule formulation containing the nicotinamide mononucleotide and starch (100 mg of the nicotinamide mononucleotide in 4 capsules) (manufactured by SHINKOWA PHARMACEUTICAL Co., Ltd.) was used.
as §1, with “above […]” for “above”, “100” for “200”
Measurement of the prolactin quantity in the plasma was conducted by requesting the measurement to an external public organization according to a usual method. FIGS. 18a to 18c indicate transitions of the prolactin concentration (ng/ml) in the plasma for 24 weeks. FIG. 18a represents the transitions of the whole subjects; FIG. 18b represents the transitions of the male subjects; FIG. 18c represents the transitions of the female subjects. Further, FIGS. 19a to 19c indicate change rates (%) of the blood prolactin concentration up to 24 weeks when the nicotinamide mononucleotide was orally administered to the subjects for 24 weeks. FIG. 19a represents the change rates of the whole subjects; FIG. 19b represents the change rates of the male subjects; FIG. 19c represents the change rates of the female subjects. Further, Table 9 indicates the numerical values of the prolactin concentration (ng/ml) in the plasma before the ingestion of the nicotinamide mononucleotide (0 weeks) and after the ingestion of the nicotinamide mononucleotide (24 weeks). Note that the numerical values represent mean values±standard deviation.

NC(=O)c1ccc[n+]([C@@H]2O[C@H](COP(=O)([O-])O)[C@@H](O)[C@H]2O)c1 [nicotinamide mononucleotide]
ghrelin concentration in the plasma, 0 weeks (before ingestion) ([1]; Female): 260 ± 111 pg/mL | ghrelin concentration in the plasma, 24 weeks (after ingestion) ([1]; Female): 990 ± 834 pg/mL | ghrelin concentration in the plasma, Change rate (24 weeks - 0 weeks) ([1]; Female): 730 ± 847 pg/mL | ghrelin concentration in the plasma, 0 weeks (before ingestion) ([1]; Male): 111 ± 91 pg/mL | ghrelin concentration in the plasma, 24 weeks (after ingestion) ([1]; Male): 152 ± 131 pg/mL | ghrelin concentration in the plasma, Change rate (24 weeks - 0 weeks) ([1]; Male): 40 ± 50 pg/mL | ghrelin concentration in the plasma, 0 weeks (before ingestion) ([1]; Whole Subjects): 186 ± 124 pg/mL | ghrelin concentration in the plasma, 24 weeks (after ingestion) ([1]; Whole Subjects): 571 ± 716 pg/mL | ghrelin concentration in the plasma, Change rate (24 weeks - 0 weeks) ([1]; Whole Subjects): 385 ± 672 pg/mL | ghrelin concentrations in the plasma, effect of ingestion (in words) ([1]; oral, 200 mg/daily, 24 weeks, FIGS. 6a-6c, 7a-7c): increased | estradiol concentration in the plasma, 0 weeks (before ingestion) ([2]; Female): 10.0 ± 0.0 pg/mL | estradiol concentration in the plasma, 24 weeks (after ingestion) ([2]; Female): 40.8 ± 70.6 pg/mL | estradiol concentration in the plasma, Change rate (24 weeks - 0 weeks) ([2]; Female): 30.8 ± 70.6 pg/mL | estradiol concentration in the plasma, 0 weeks (before ingestion) ([2]; Male): 24.0 ± 9.4 pg/mL | estradiol concentration in the plasma, 24 weeks (after ingestion) ([2]; Male): 24.9 ± 7.7 pg/mL | estradiol concentration in the plasma, Change rate (24 weeks - 0 weeks) ([2]; Male): 0.9 ± 5.6 pg/mL | estradiol concentration in the plasma, 0 weeks (before ingestion) ([2]; Whole Subjects): 17.0 ± 9.7 pg/mL | estradiol concentration in the plasma, 24 weeks (after ingestion) ([2]; Whole Subjects): 32.9 ± 48.1 pg/mL | estradiol concentration in the plasma, Change rate (24 weeks - 0 weeks) ([2]; Whole Subjects): 15.9 ± 49.8 pg/mL | estradiol concentrations in the plasma, effect of ingestion (in words) ([2]; oral, 100 mg/daily, 24 weeks, FIGS. 14a-14c, 15a-15c): increased | prolactin concentration in the plasma, 0 weeks (before ingestion) ([3]; Female): 8.50 ± 2.71 ng/mL | prolactin concentration in the plasma, 24 weeks (after ingestion) ([3]; Female): 10.15 ± 3.22 ng/mL | prolactin concentration in the plasma, Change rate (24 weeks - 0 weeks) ([3]; Female): 1.66 ± 4.32 ng/mL | prolactin concentration in the plasma, 0 weeks (before ingestion) ([3]; Male): 9.23 ± 1.92 ng/mL | prolactin concentration in the plasma, 24 weeks (after ingestion) ([3]; Male): 9.58 ± 2.47 ng/mL | prolactin concentration in the plasma, Change rate (24 weeks - 0 weeks) ([3]; Male): 0.35 ± 1.40 ng/mL | prolactin concentration in the plasma, 0 weeks (before ingestion) ([3]; Whole Subjects): 8.86 ± 2.25 ng/mL | prolactin concentration in the plasma, 24 weeks (after ingestion) ([3]; Whole Subjects): 9.87 ± 2.72 ng/mL | prolactin concentration in the plasma, Change rate (24 weeks - 0 weeks) ([3]; Whole Subjects): 1.00 ± 3.10 ng/mL | prolactin concentrations in the plasma, effect of ingestion (in words) ([3]; oral, 100 mg/daily, 24 weeks, FIGS. 18a-18c, 19a-19c): increased
